Where “and” joins values, the source holds several entries; their conditions need not be identical. Identical values can stand only once. Like-named read-outs stand apart in the source and are kept apart here.
Legend:
[1] = Pharmacokinetics in ICR mice after intravenous and intragastric administration; type: in vivo; conditions: for Vd: read-out: Vz; for MRT last: read-out: MRT(0-t); for MRT inf: read-out: MRT(0-∞)
Outline: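 Plasma concentration-time data, quantified by LC-MS/MS with a 1 ng/mL lower limit, gave AUC, t1/2, MRT, Cmax, Tmax, bioavailability, Vz and clearance. Overnight-fasted male ICR mice (three per route) received 2 mg/kg intravenously or 5 mg/kg intragastrically.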

[2] = molecular target: T1, MDM2 (Homo sapiens, UniProt Q00987); experiment: Inhibition test of MDM2-P53 (GST-MDM2, Biotin-P53, Anti-GST-Tb, SA-XL665); type: binding
T1 construct: made in house
T1 sequence (Q00987 whole entry): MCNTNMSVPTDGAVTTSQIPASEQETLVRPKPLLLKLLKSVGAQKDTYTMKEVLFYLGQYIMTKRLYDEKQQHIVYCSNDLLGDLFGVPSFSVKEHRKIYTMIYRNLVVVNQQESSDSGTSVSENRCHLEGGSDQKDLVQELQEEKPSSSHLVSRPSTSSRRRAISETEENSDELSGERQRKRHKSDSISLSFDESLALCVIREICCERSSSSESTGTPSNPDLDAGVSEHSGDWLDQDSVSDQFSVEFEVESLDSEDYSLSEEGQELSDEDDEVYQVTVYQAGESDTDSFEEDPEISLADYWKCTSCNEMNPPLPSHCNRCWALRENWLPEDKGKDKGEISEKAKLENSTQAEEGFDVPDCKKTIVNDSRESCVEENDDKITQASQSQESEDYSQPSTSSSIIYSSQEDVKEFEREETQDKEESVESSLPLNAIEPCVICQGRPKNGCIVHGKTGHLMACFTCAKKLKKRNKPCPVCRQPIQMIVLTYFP
Outline: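 Compounds, serially diluted 5-fold (twelve concentrations), were shaken for 90 min at 25° C with a mix of GST-MDM2 (4 nM final), Biotin-P53, anti-GST-Tb and SA-XL665. Buffer: 1×PBS, 0.1% BSA, 5 mM DTT, 1 mM AEBSF; signal read on a microplate reader.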

[3] = test system: human osteosarcoma cell line SJSA-1; experiment: Inhibition of proliferation of human osteosarcoma cell line SJSA-1 (DAPI staining, In Cell Analyzer); conditions: Homo sapiens, SJSA-1, 72 h, read-out: IC50 (nM), inhibitory activity on proliferation of human osteosarcoma cell line SJSA-1, SJSA-1, incubated 72 h
[4] = ICR mice, IV 2 mg/kg, individual animal, 2 mg/kg
[5] = ICR mice, PO 5 mg/kg, individual animal, 5 mg/kg
[6] = male, ICR, mouse, plasma, iv, 2 mg/kg, ICR mice, IV 2 mg/kg, individual animal, read-out: Cmax
[7] = male, ICR, mouse, plasma, iv, 2 mg/kg, ICR mice, IV 2 mg/kg, individual animal, read-out: Tmax
[8] = male, ICR, mouse, plasma, iv, 2 mg/kg, ICR mice, IV 2 mg/kg, individual animal
[9] = male, ICR, mouse, plasma, iv, 2 mg/kg, ICR mice, IV 2 mg/kg, mean of 3 animals
[10] = male, ICR, mouse, plasma, iv, 2 mg/kg, ICR mice, IV 2 mg/kg, mean of 3 animals, read-out: AUC(0-t)
[11] = male, ICR, mouse, plasma, iv, 2 mg/kg, ICR mice, IV 2 mg/kg, mean of 3 animals, read-out: Cmax
[12] = male, ICR, mouse, plasma, iv, 2 mg/kg, ICR mice, IV 2 mg/kg, mean of 3 animals, read-out: Tmax
[13] = male, ICR, mouse, plasma, iv, 2 mg/kg, ICR mice, IV 2 mg/kg, mean of 3 animals, read-out: t1/2 (converted)
[14] = male, ICR, mouse, plasma, po, 5 mg/kg, ICR mice, PO 5 mg/kg, individual animal
[15] = male, ICR, mouse, plasma, po, 5 mg/kg, ICR mice, PO 5 mg/kg, individual animal, read-out: Tmax
[16] = male, ICR, mouse, plasma, po, 5 mg/kg, ICR mice, PO 5 mg/kg, individual animal, read-out: t1/2 (converted)
[17] = male, ICR, mouse, plasma, po, 5 mg/kg, ICR mice, PO 5 mg/kg, mean of 3 animals
[18] = male, ICR, mouse, plasma, po, 5 mg/kg, ICR mice, PO 5 mg/kg, mean of 3 animals, read-out: AUC(0-t)
[19] = male, ICR, mouse, plasma, po, 5 mg/kg, ICR mice, PO 5 mg/kg, mean of 3 animals, read-out: Cmax
[20] = male, ICR, mouse, plasma, po, 5 mg/kg, ICR mice, PO 5 mg/kg, mean of 3 animals, read-out: Tmax
[21] = male, ICR, mouse, plasma, po, 5 mg/kg, ICR mice, PO 5 mg/kg, mean of 3 animals, read-out: t1/2 (converted)
[22] = male, ICR, mouse, plasma, po, 5 mg/kg, oral intragastric administration 5 mg/kg, read-out: AUC0-t
[23] = male, ICR, mouse, plasma, po, 5 mg/kg, oral intragastric administration 5 mg/kg, read-out: half-life (converted)
[24] = male, mouse, plasma, ICR mice, PO 5 mg/kg vs IV 2 mg/kg, from mean values, read-out: F* (bioavailability)
[25] = male, ICR, mouse, plasma, iv, 2 mg/kg, ICR mice, IV 2 mg/kg, individual animal, read-out: t1/2 (converted)
[26] = male, ICR, mouse, plasma, po, 5 mg/kg, ICR mice, PO 5 mg/kg, individual animal, read-out: Cmax

CCOc1cc(OC)c(-c2nc3c(n2C(C)C)[C@@]2(C(=O)Nc4cc(Cl)ccc42)N(c2cc(Cl)cnc2C)C3=O)cn1 [Example S-96, (S)-6-chloro-5′-(5-chloro-2-methylpyridin-3-yl)-2′-(6-ethoxy-4-methoxypyridin-3-yl)-3′-isopropyl-3′H-spiro[dihydroindole-3,4′-pyrrolo[3,4-d]imidazole]-2,6′(5′H)-dione]
AUC(0-t) [1, 4]: 3109.78 ng·h/mL and 3206.41 ng·h/mL and 6719.85 ng·h/mL
AUC(0-∞) [1, 4]: 3157.25 ng·h/mL and 3250.65 ng·h/mL and 6815.93 ng·h/mL
CL [1, 4]: 10.56 mL/min/kg and 10.25 mL/min/kg and 4.89 mL/min/kg
Cmax [1, 4]: 3353.43 ng/mL and 3438.41 ng/mL
MRT(0-t) [1, 4]: 0.90 h and 2.62 h
MRT(0-∞) [1, 4]: 1.00 h and 0.99 h and 2.99 h
Vz [1, 4]: 0.95 L/kg and 1.42 L/kg
t1/2 [1, 4]: 0.93 h and 1.07 h and 3.36 h
AUC(0-t) [1, 5]: 6327.28 ng·h/mL and 6993.90 ng·h/mL and 13010.63 ng·h/mL
AUC(0-∞) [1, 5]: 6705.00 ng·h/mL and 7471.54 ng·h/mL and 15115.19 ng·h/mL
Cmax [1, 5]: 3921.65 ng/mL and 2400.19 ng/mL and 5236.64 ng/mL
MRT(0-t) [1, 5]: 2.42 h and 2.30 h
MRT(0-∞) [1, 5]: 2.97 h and 3.61 h
Tmax [1, 5]: 0.50 h
t1/2 [1, 5]: 2.06 h and 2.58 h
Cmax [1, 6]: 2980 ng/mL
Tmax [1, 7]: 0.08 h
Vd [1, 8]: 0.85 L/kg
AUC(0-inf) [1, 9]: 4410 ng·h/mL
clearance [1, 9]: 8.57 mL/min/kg
AUC(0-t) [1, 10]: 4350 ng·h/mL
Cmax [1, 11]: 3260 ng/mL
MRT last [1, 9]: 1.47 h
MRT inf [1, 9]: 1.66 h
Tmax [1, 12]: 0.083 h
Vd [1, 9]: 1.07 L/kg
half-life [1, 13]: 1.79 h
MRT last [1, 14]: 1.66 h
MRT inf [1, 14]: 2.15 h
Tmax [1, 15]: 0.25 h
half-life [1, 16]: 1.69 h
AUC(0-inf) [1, 17]: 9760 ng·h/mL
AUC(0-t) [1, 18]: 8780 ng·h/mL
Cmax [1, 19]: 3850 ng/mL
MRT last [1, 17]: 2.13 h
MRT inf [1, 17]: 2.91 h
Tmax [1, 20]: 0.42 h
half-life [1, 21]: 2.11 h
AUC(0-t) [1, 22]: 8780 ng·h/mL
half-life [1, 23]: 2.11 h
bioavailability [1, 24]: 80.8%
IC50 [2]: 1.04 nM
IC50 [3]: 25.3 nM

CCOc1cc(OC)c(-c2nc3c(n2C(C)C)[C@@]2(C(=O)Nc4cc(Cl)ccc42)N(c2cc(Cl)ccc2F)C3=O)cn1 [Example S-98, (S)-6-chloro-5′-(5-chloro-2-fluorophenyl)-2′-(6-ethoxy-4-methoxypyridin-3-yl)-3′-isopropyl-3′H-spiro[dihydroindole-3,4′-pyrrolo[3,4-d]imidazole]-2,6′(5′H)-dione]
AUC(0-t) [1, 4]: 8869.53 ng·h/mL and 11177.15 ng·h/mL
AUC(0-∞) [1, 4]: 9108.92 ng·h/mL and 12596.27 ng·h/mL
CL [1, 4]: 3.66 mL/min/kg and 2.65 mL/min/kg
Cmax [1, 4]: 3789.06 ng/mL and 3405.07 ng/mL
MRT(0-t) [1, 4]: 1.43 h and 1.82 h
MRT(0-∞) [1, 4]: 1.60 h and 2.60 h
Vz [1, 4]: 0.37 L/kg and 0.44 L/kg
t1/2 [1, 4]: 1.17 h and 1.93 h
AUC(0-t) [1, 5]: 37288.31 ng·h/mL and 18064.52 ng·h/mL and 23330.62 ng·h/mL
AUC(0-∞) [1, 5]: 19691.36 ng·h/mL and 23352.18 ng·h/mL
Cmax [1, 5]: 3420.72 ng/mL and 2943.86 ng/mL
MRT(0-t) [1, 5]: 3.17 h and 4.72 h
MRT(0-∞) [1, 5]: 3.82 h and 4.74 h
Tmax [1, 5]: 2.00 h
t1/2 [1, 5]: 2.12 h and 2.30 h
AUC(0-inf) [1, 8]: 10500 ng·h/mL
clearance [1, 8]: 3.16 mL/min/kg
AUC(0-t) ([1]; male, ICR, mouse, plasma, iv, 2 mg/kg, ICR mice, IV 2 mg/kg, individual animal, read-out: AUC(0-t)): 10000 ng·h/mL
Cmax [1, 6]: 3670 ng/mL
MRT last [1, 8]: 1.55 h
MRT inf [1, 8]: 1.86 h
Tmax [1, 7]: 0.08 h
Vd [1, 8]: 0.39 L/kg
half-life [1, 25]: 1.43 h
AUC(0-inf) [1, 9]: 10700 ng·h/mL
clearance [1, 9]: 3.16 mL/min/kg
AUC(0-t) [1, 10]: 10000 ng·h/mL
Cmax [1, 11]: 3620 ng/mL
MRT last [1, 9]: 1.6 h
MRT inf [1, 9]: 2.02 h
Tmax [1, 12]: 0.083 h
Vd [1, 9]: 0.4 L/kg
half-life [1, 13]: 1.51 h
AUC(0-inf) [1, 14]: 37300 ng·h/mL
Cmax [1, 26]: 3840 ng/mL
MRT last [1, 14]: 5.36 h
MRT inf [1, 14]: 5.38 h
Tmax [1, 15]: 4 h
half-life [1, 16]: 2.31 h
AUC(0-inf) [1, 17]: 26800 ng·h/mL
AUC(0-t) [1, 18]: 26200 ng·h/mL
Cmax [1, 19]: 3400 ng/mL
MRT last [1, 17]: 4.41 h
MRT inf [1, 17]: 4.65 h
Tmax [1, 20]: 2.67 h
half-life [1, 21]: 2.24 h
AUC(0-t) [1, 22]: 26200 ng·h/mL
half-life [1, 23]: 2.24 h
bioavailability ([1]; male, ICR, mouse, plasma, oral intragastric administration 5 mg/kg, read-out: bioavailability): 105%
bioavailability [1, 24]: 105%
IC50 [2]: 1.27 nM
IC50 [3]: 56.1 nM

COc1cc(C2CC2)ncc1-c1nc2c(n1C(C)C)[C@@]1(C(=O)Nc3cc(Cl)ccc31)N(c1cc(Cl)ccc1C)C2=O [Example S-103, (S)-6-chloro-5′-(5-chloro-2-methylphenyl)-2′-(6-cyclopropyl-4-methoxypyridin-3-yl)-3′-isopropyl-3′H-spiro[dihydroindole-3,4′-pyrrolo[3,4-d]imidazole]-2,6′(5′H)-dione]
AUC(0-t) [1, 4]: 10460.62 ng·h/mL and 4009.87 ng·h/mL and 5508.40 ng·h/mL
AUC(0-∞) [1, 4]: 10483.52 ng·h/mL and 5119.53 ng·h/mL and 8771.81 ng·h/mL
CL [1, 4]: 3.18 mL/min/kg and 6.51 mL/min/kg and 3.80 mL/min/kg
Cmax [1, 4]: 1045.99 ng/mL and 1333.49 ng/mL
MRT(0-t) [1, 4]: 4.16 h and 2.05 h and 2.33 h
MRT(0-∞) [1, 4]: 3.75 h and 5.91 h
Vz [1, 4]: 1.53 L/kg and 1.35 L/kg
t1/2 [1, 4]: 2.71 h and 4.11 h
AUC(0-t) [1, 5]: 13078.28 ng·h/mL and 19872.62 ng·h/mL
AUC(0-∞) [1, 5]: 14231.55 ng·h/mL and 19888.79 ng·h/mL
Cmax [1, 5]: 2344.01 ng/mL and 3008.06 ng/mL
MRT(0-t) [1, 5]: 3.36 h and 4.45 h
MRT(0-∞) [1, 5]: 3.93 h and 4.47 h
Tmax [1, 5]: 4.00 h
t1/2 [1, 5]: 1.72 h and 2.23 h
Cmax [1, 6]: 1330 ng/mL
MRT inf [1, 8]: 4.21 h
Tmax [1, 7]: 1 h
Vd [1, 8]: 0.79 L/kg
half-life [1, 25]: 2.89 h
AUC(0-inf) [1, 9]: 8120 ng·h/mL
clearance [1, 9]: 4.5 mL/min/kg
AUC(0-t) [1, 10]: 6660 ng·h/mL
Cmax [1, 11]: 1240 ng/mL
MRT last [1, 9]: 2.85 h
MRT inf [1, 9]: 4.62 h
Tmax [1, 12]: 1 h
Vd [1, 9]: 1.22 L/kg
half-life [1, 13]: 3.24 h
AUC(0-inf) [1, 14]: 11700 ng·h/mL
AUC(0-t) ([1]; male, ICR, mouse, plasma, po, 5 mg/kg, ICR mice, PO 5 mg/kg, individual animal, read-out: AUC(0-t)): 11000 ng·h/mL
Cmax [1, 26]: 2380 ng/mL
MRT last [1, 14]: 3.08 h
MRT inf [1, 14]: 3.54 h
Tmax [1, 15]: 2 h
half-life [1, 16]: 1.84 h
AUC(0-inf) [1, 17]: 15300 ng·h/mL
AUC(0-t) [1, 18]: 14600 ng·h/mL
Cmax [1, 19]: 2580 ng/mL
MRT last [1, 17]: 3.63 h
MRT inf [1, 17]: 3.98 h
Tmax [1, 20]: 3.33 h
half-life [1, 21]: 1.93 h
AUC(0-t) [1, 22]: 14600 ng·h/mL
half-life [1, 23]: 1.93 h
bioavailability [1, 24]: 87.9%
IC50 [2]: 1.81 nM
IC50 [3]: 40.5 nM
